Experimental data from patent US4068074A, “Cephalosporin derivatives having at the 3-position of the cephem ring a heterocyclic thiomethyl group with a carboxy or sulfo group and at the 7-position of the cephem ring an α-heterocylic acylaminophenyl-acetamide group” (priority 1974, dated 1978).
In brackets after ≈: the same amount, converted by molar mass. Like-named read-outs stand apart in the source and are kept apart here.

Key:
[1] = Residual antibacterial activity after incubation with 90% plasma (Table 4); assay type: in vitro ADME, male Sprague-Dowley rat; conditions: 90% rat plasma; for remaining at 0.25 h / remaining at 0.5 h / remaining at 1.5 h: 90% plasma; for remaining at 0.25 h: 15 minute; for remaining at 0.5 h: 30 minute; for remaining at 1.5 h: 90 minute; for Residual activity: 0 minute
Protocol: (§1) The relation between the reaction period of time and the antibacterial activity (residual activity, %) when these compounds are incubated with the plasma and the liver homogenate of a male Sprague-Dowley rat is shown in Table 4. The residual antibacterial activity was measured by a thin-layer cup method according to Bacillus subtilis ATCC 6633.
A*Residual activity (%) when incubated with 90% plasma.

[2] = Residual antibacterial activity after incubation with 10% liver homogenate (Table 4); assay type: in vitro ADME, male Sprague-Dowley rat; conditions: 10% rat liver homogenate; for remaining at 0.25 h / remaining at 0.5 h / remaining at 1.5 h: 10% liver homogenate, read-out: Residual activity; for remaining at 0.25 h: 15 minute; for remaining at 0.5 h: 30 minute; for remaining at 1.5 h: 90 minute; for Residual activity: 0 minute
Protocol: as §1
B*Residual activity (%) when incubated with 10% liver homogenate.

[3] = Solubility of salts in water (Table 2); assay type: physicochemical; conditions: for Solubility (appearance of solution): sodium salt, in water; for solubility: disodium salt, water, showing pH 7.4, read-out: Solubility: disodium salt dissolved in water in an amount of
Text: An advantage of the compounds of this invention is that the salts, for example, sodium salts of these compounds are readily soluble in water at pH of living bodies, which makes them suitable for injections at high concentration. The solubility of these compounds are illustrated in Table 2 together with a control example.

[4] = test system: Proteus vulgaris OXK US; assay: MIC against bacteria (Table I), strain (1); assay type: cell-based; conditions: (1) Proteus vulgaris OXK US; read-out: MIC
Text: (§2) Now, for illustrating the excellent pharmacological effects of the compounds of this invention, the values of MIC (γ/ml.) of the compounds against various bacteria are shown in Table 1, in which the compounds of this invention used are shown by example numbers.
(1) Proteus vulgaris OXK US

[5] = test system: Proteus vulgaris 0X 19US; assay: MIC against bacteria (Table I), strain (2); assay type: cell-based; conditions: 0X19US; (2) Proteus vulgaris 0X 19US; read-out: MIC
Text: as §2
(2) Proteus vulgaris 0X 19US

[6] = test system: Proteus mirabilis IXM OM-19; assay: MIC against bacteria (Table I), strain (3); assay type: cell-based; conditions: IXMOM19; (3) Proteus mirabilis IXM OM-19; read-out: MIC
Text: as §2
(3) Proteus mirabilis IXM OM-19

[7] = test system: Pseudomonas aeruginosa ATCC 8689; assay: MIC against bacteria (Table I), strain (4); assay type: cell-based; conditions: ATCC8689; (4) Pseudomonas aeruginosa ATCC 8689; read-out: MIC
Text: as §2
(4) Pseudomonas aeruginosa ATCC 8689

[8] = test system: Pseudomonas aeruginosa 99 (Gentamycin resistant); assay: MIC against bacteria (Table I), strain (5); assay type: cell-based; conditions: (5) Pseudomonas aeruginosa 99 (Gentamycin resistant); read-out: MIC
Text: as §2
(5) Pseudomonas aeruginosa 99 (Gentamycin resistant)

[9] = test system: Psuedomonas ovalis IMA 1002; assay: MIC against bacteria (Table I), strain (6); assay type: cell-based; conditions: (6) Psuedomonas ovalis IMA 1002; read-out: MIC
Text: as §2
(6) Psuedomonas ovalis IMA 1002

[10] = test system: Escherichia coli kauffmann 0-1; assay: MIC against bacteria (Table I), strain (7); assay type: cell-based; conditions: Escherichia coli
Text: as §2
(7) Escherichia coli kauffmann 0-1

[11] = test system: Klebsiella pneumoniae ATCC 10031; assay: MIC against bacteria (Table I), strain (8); assay type: cell-based; conditions: ATCC10031
Text: as §2
(8) Klebsiella pneumoniae ATCC 10031

[12] = test system: Salmonella typhi H901 W; assay: MIC against bacteria (Table I), strain (9); assay type: cell-based; conditions: Salmonella enterica, TYPHI
Text: as §2
(9) Salmonella typhi H901 W

[13] = test system: Salmonella enteritidis; assay: MIC against bacteria (Table I), strain (10); assay type: cell-based; conditions: Salmonella enterica
Text: as §2
(10) Salmonella enteritidis

[14] = test system: Shigella flexneri 2a 1675; assay: MIC against bacteria (Table I), strain (11); assay type: cell-based; conditions: 2A1675; (11) Shigella flexneri 2a 1675; read-out: MIC
Text: as §2

[15] = test system: Shigella sonnei II 37148; assay: MIC against bacteria (Table I), strain (12); assay type: cell-based; conditions: II37148; (12) Shigella sonnei II 37148; read-out: MIC
Text: as §2

[16] = test system: Bacillus megatherium 10778; assay: MIC against bacteria (Table I), strain (13); assay type: cell-based; conditions: (13) Bacillus megatherium 10778; read-out: MIC
Text: as §2

[17] = test system: Bacillus subtilis ATCC 6633; assay: MIC against bacteria (Table I), strain (14); assay type: cell-based; conditions: ATCC6633; (14) Bacillus subtilis ATCC 6633; read-out: MIC
Text: as §2
(14) Bacillus subtilis ATCC 6633

[18] = test system: Micrococcus flavus ATCC 10240; assay: MIC against bacteria (Table I), strain (15); assay type: cell-based; conditions: ATCC10240
Text: as §2
(15) Micrococcus flavus ATCC 10240

[19] = test system: Staphylococcus aureus 209P; assay: MIC against bacteria (Table I), strain (16); assay type: cell-based
Text: as §2
(16) Staphylococcus aureus 209P

[20] = test system: Staphylococcus Shimanishi; assay: MIC against bacteria (Table I), strain (17); assay type: cell-based
Text: as §2
(17) Staphylococcus Shimanishi

[21] = test system: Staphylococcus Onuma; assay: MIC against bacteria (Table I), strain (18); assay type: cell-based
Text: as §2
(18) Staphylococcus Onuma

[22] = (8) Klebsiella pneumoniae ATCC 10031, read-out: MIC
[23] = (15) Micrococcus flavus ATCC 10240, read-out: MIC
[24] = (16) Staphylococcus aureus 209P, read-out: MIC
[25] = (17) Staphylococcus Shimanishi, read-out: MIC
[26] = (10) Salmonella enteritidis, read-out: MIC
[27] = (18) Staphylococcus Onuma, read-out: MIC

Compound	MIC [4] [µg/mL]	MIC [5] [µg/mL]	MIC [6] [µg/mL]	MIC [7] [µg/mL]	MIC [8] [µg/mL]	MIC [9] [µg/mL]	MIC [10] [µg/mL]	MIC [11, 22] [µg/mL]	MIC [12] [µg/mL]	MIC [14] [µg/mL]	MIC [15] [µg/mL]	MIC [16] [µg/mL]	MIC [17] [µg/mL]	MIC [18, 23] [µg/mL]	MIC [19, 24] [µg/mL]	MIC [20, 25] [µg/mL]	MIC [13, 26] [µg/mL]	MIC [21, 27] [µg/mL]	solubility [3] [mg/mL]	further results
O=C(Cc1cccs1)N[C@@H]1C(=O)N2C(C(=O)[O-])=C(C[n+]3ccccc3)CS[C@H]12 [Cephaloridine, reference compound]	–	–	–	–	–	–	–	–	–	–	–	–	–	–	–	–	–	–	–	remaining at 0.25 h [1]: 97.2%; remaining at 0.5 h [1]: 89.5%; remaining at 1.5 h [1]: 72.2%; Residual activity [1]: 100%; remaining at 0.25 h [2]: 82.3%; remaining at 0.5 h [2]: 86%; remaining at 1.5 h [2]: 91.1%; Residual activity [2]: 100%
Cc1nnc(SCC2=C(C(=O)O)N3C(=O)[C@@H](NC(=O)[C@H](NC(=O)c4cnccc4O)c4ccccc4)[C@H]3SC2)s1 [Control sample, reference compound]	–	–	–	–	–	–	–	–	–	–	–	–	–	–	–	–	–	–	–	Solubility (appearance of solution) ([3]; at 0.5%): clearly; Solubility (appearance of solution) ([3]; at 1%): became slight turbid; Solubility (appearance of solution) ([3]; at 5%): became turbid; Solubility (appearance of solution) ([3]; at 10%): became thickly turbid; Solubility (appearance of solution) ([3]; at 20%): gelled
O=C(O)C1=C(CSc2nnc(SCCS(=O)(=O)O)s2)CS[C@@H]2[C@H](NC(=O)[C@H](NC(=O)c3cnccc3O)c3ccccc3)C(=O)N12 [Example 9, 7-[D-α-(4-hydroxynicotinoylamido)-α-phenylacetamido]-3-(5-sulfoethylthio-1,3,4-thiadiazol-2-yl)thiomethyl-Δ^3-cephem-4-carboxylic acid]	0.19 (≈ 0.262 µM)	0.39 (≈ 0.538 µM)	0.39 (≈ 0.538 µM)	12.5 (≈ 17.2 µM)	12.5 (≈ 17.2 µM)	12.5 (≈ 17.2 µM)	3.13 (≈ 4.32 µM)	3.13 (≈ 4.32 µM)	1.56 (≈ 2.15 µM)	1.56 (≈ 2.15 µM)	6.25 (≈ 8.62 µM)	0.39 (≈ 0.538 µM)	0.39 (≈ 0.538 µM)	3.13 (≈ 4.32 µM)	0.78 (≈ 1.08 µM)	3.13 (≈ 4.32 µM)	–	–	–	MIC ([13]; ENTERITIDIS): 0.39 µg/mL (≈ 0.538 µM); MIC ([21]; Staphylococcus): 6.25 µg/mL (≈ 8.62 µM); remaining at 0.25 h [1]: 103%; remaining at 0.5 h [1]: 92%; remaining at 1.5 h [1]: 100%; Residual activity [1]: 100%; remaining at 0.25 h [2]: 100%; remaining at 0.5 h [2]: 100%; remaining at 1.5 h [2]: 102%; Residual activity [2]: 100%
O=C(O)CSc1nsc(SCC2=C(C(=O)O)N3C(=O)[C@@H](NC(=O)[C@H](NC(=O)c4cnccc4O)c4ccccc4)[C@H]3SC2)n1 [Example 13, 7-[D-α-(4-hydroxynicotinoylamido)-α-phenylacetamido]-3-(3-carboxymethylthio-1,2,4-thiadiazol-5yl)thiomethyl-Δ^3 cephem-4-carboxylic acid]	< 0.09	0.78 (≈ 1.16 µM)	0.39 (≈ 0.578 µM)	12.5 (≈ 18.5 µM)	6.25 (≈ 9.26 µM)	12.5 (≈ 18.5 µM)	3.13 (≈ 4.64 µM)	–	1.56 (≈ 2.31 µM)	1.56 (≈ 2.31 µM)	3.13 (≈ 4.64 µM)	0.39 (≈ 0.578 µM)	0.39 (≈ 0.578 µM)	6.25 (≈ 9.26 µM)	0.78 (≈ 1.16 µM)	6.25 (≈ 9.26 µM)	0.39 (≈ 0.578 µM)	6.25 (≈ 9.26 µM)	> 200	MIC ([11]; Klebsiella pneumoniae): 3.13 µg/mL (≈ 4.64 µM)
O=C(O)CSc1cc(SCC2=C(C(=O)O)N3C(=O)[C@@H](NC(=O)[C@H](NC(=O)c4cnccc4O)c4ccccc4)[C@H]3SC2)ncn1 [Example 16]	< 0.09	< 0.09	0.19 (≈ 0.284 µM)	25 (≈ 37.4 µM)	25 (≈ 37.4 µM)	25 (≈ 37.4 µM)	6.25 (≈ 9.35 µM)	12.5 (≈ 18.7 µM)	1.56 (≈ 2.33 µM)	3.13 (≈ 4.68 µM)	6.25 (≈ 9.35 µM)	0.39 (≈ 0.583 µM)	0.19 (≈ 0.284 µM)	–	0.78 (≈ 1.17 µM)	–	0.78 (≈ 1.17 µM)	–	> 200	MIC ([18]; Micrococcus flavus): 3.13 µg/mL (≈ 4.68 µM); MIC ([20]; Staphylococcus): 6.25 µg/mL (≈ 9.35 µM); MIC ([21]; Staphylococcus): 6.25 µg/mL (≈ 9.35 µM)
Cc1nc(SCC2=C(C(=O)O)N3C(=O)[C@@H](NC(=O)[C@H](NC(=O)c4cnccc4O)c4ccccc4)[C@H]3SC2)sc1CC(=O)O [Example 23, 7-[D-α-(4-hydroxynicotinoylamido)-α-phenylacetamido]-3-(5-carboxymethyl-4-methylthiazol-2-yl)thiomethyl-Δ^3-cephem-4-carboxylic acid]	< 0.09	< 0.09	0.19 (≈ 0.29 µM)	12.5 (≈ 19.1 µM)	6.25 (≈ 9.53 µM)	12.5 (≈ 19.1 µM)	1.56 (≈ 2.38 µM)	6.25 (≈ 9.53 µM)	1.56 (≈ 2.38 µM)	1.56 (≈ 2.38 µM)	3.13 (≈ 4.77 µM)	0.39 (≈ 0.595 µM)	0.78 (≈ 1.19 µM)	12.5 (≈ 19.1 µM)	–	12.5 (≈ 19.1 µM)	–	12.5 (≈ 19.1 µM)	> 200	MIC ([13]; ENTERITIDIS): 0.39 µg/mL (≈ 0.595 µM); MIC ([19]; Staphylococcus aureus, 209P): 3.13 µg/mL (≈ 4.77 µM)
Cc1nc(SCC2=C(C(=O)O)N3C(=O)[C@@H](NC(=O)[C@H](NC(=O)c4cnccc4O)c4ccccc4)[C@H]3SC2)sc1SCC(=O)O [Example 24, 7-[D-α-(4-hydroxynicotinoylamido)-α-phenylacetamido]-3-(5-carboxymethylthio-4-methylthiazol-2-yl)thiomethyl-Δ^3-cephem-4-carboxylic acid]	< 0.09	< 0.09	0.19 (≈ 0.276 µM)	12.5 (≈ 18.2 µM)	6.25 (≈ 9.09 µM)	12.5 (≈ 18.2 µM)	3.13 (≈ 4.55 µM)	6.25 (≈ 9.09 µM)	1.56 (≈ 2.27 µM)	1.56 (≈ 2.27 µM)	3.13 (≈ 4.55 µM)	0.78 (≈ 1.13 µM)	0.39 (≈ 0.567 µM)	6.25 (≈ 9.09 µM)	0.78 (≈ 1.13 µM)	6.25 (≈ 9.09 µM)	0.78 (≈ 1.13 µM)	6.25 (≈ 9.09 µM)	> 200	–
